Results: article PMC6418866 (Journal of the American Chemical Society, 2019)
Read-outs that look alike come from different tables or passages of the source. Each block holds one compound with its values, some of them ahead of it.

Experiments:
[1] = biological target: recombinant human GAA (rGAA, Myozyme) (Homo sapiens, UniProt P10253); experiment: In vitro inhibition of rGAA; details: IC50 ratio
[2] = biological target: T1, recombinant human GBA (rGBA, Cerezyme) (Homo sapiens, UniProt P04062, R534H); details: read-out: Apparent IC50, rGBA; 3 h preincubation; cited from earlier work
T1 sequence (P04062 40-536 R534H): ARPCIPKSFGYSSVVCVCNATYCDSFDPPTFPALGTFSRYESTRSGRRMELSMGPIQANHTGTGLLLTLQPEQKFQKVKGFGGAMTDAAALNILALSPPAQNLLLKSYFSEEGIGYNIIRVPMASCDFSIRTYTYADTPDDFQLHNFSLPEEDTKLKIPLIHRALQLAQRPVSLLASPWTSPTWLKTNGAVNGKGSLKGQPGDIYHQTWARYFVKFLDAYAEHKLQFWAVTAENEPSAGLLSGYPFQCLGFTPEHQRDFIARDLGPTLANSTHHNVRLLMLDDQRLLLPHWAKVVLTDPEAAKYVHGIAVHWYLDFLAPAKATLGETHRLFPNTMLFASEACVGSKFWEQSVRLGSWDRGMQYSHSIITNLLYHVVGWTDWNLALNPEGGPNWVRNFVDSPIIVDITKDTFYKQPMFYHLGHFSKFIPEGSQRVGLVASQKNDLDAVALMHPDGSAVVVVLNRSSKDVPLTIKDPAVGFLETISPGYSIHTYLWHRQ

[3] = test system: GBA; details: cited from earlier work
[4] = test system: lysosomal β-glucuronidase GUSB; experiment: In vivo GUSB labeling in zebrafish larvae, competitive ABPP; details: 0.1–10 μM, 5 days in vivo
[5] = biological target: T2, GBA (Danio rerio, UniProt E7EZM1); experiment: In vivo GBA inactivation in zebrafish larvae, quantified by ABP labeling; details: 0.1–10 μM, 5 days in vivo
T2 sequence (E7EZM1 20-518): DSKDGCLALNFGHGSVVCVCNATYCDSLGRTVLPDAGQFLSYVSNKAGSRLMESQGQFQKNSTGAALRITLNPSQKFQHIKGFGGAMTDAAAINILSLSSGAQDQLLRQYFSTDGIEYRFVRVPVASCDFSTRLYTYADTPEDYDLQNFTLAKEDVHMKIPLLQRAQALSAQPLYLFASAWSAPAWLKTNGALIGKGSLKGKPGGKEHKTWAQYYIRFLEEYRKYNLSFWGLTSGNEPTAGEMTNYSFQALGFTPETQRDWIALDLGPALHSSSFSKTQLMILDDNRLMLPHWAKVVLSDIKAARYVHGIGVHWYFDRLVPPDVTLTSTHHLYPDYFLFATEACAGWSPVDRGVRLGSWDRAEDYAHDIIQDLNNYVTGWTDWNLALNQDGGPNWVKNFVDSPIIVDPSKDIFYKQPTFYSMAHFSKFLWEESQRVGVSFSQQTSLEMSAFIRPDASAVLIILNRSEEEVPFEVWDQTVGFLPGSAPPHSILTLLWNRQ

[6] = biological target: T1, recombinant human GBA (rGBA, Cerezyme); experiment: In vitro inhibition of rGBA, 4-MU fluorogenic substrate assay; details: Apparent IC50, in vitro rGBA, 3 h preincubation, 2 nM enzyme
[7] = test system: LPH; experiment: In vivo LPH labeling in zebrafish larvae, competitive ABPP; details: 0.1–10 μM, 5 days in vivo
[8] = test system: ER α-glucosidase GANAB; experiment: In vivo GANAB labeling in zebrafish larvae, competitive ABPP; details: 0.1–10 μM, 5 days in vivo
[9] = biological target: T3, GBA2 (Danio rerio, UniProt E7F5W0); experiment: In vivo GBA2 inactivation in zebrafish larvae, ABP labeling; details: 0.1–10 μM, 5 days in vivo
T3 sequence (E7F5W0 1-851): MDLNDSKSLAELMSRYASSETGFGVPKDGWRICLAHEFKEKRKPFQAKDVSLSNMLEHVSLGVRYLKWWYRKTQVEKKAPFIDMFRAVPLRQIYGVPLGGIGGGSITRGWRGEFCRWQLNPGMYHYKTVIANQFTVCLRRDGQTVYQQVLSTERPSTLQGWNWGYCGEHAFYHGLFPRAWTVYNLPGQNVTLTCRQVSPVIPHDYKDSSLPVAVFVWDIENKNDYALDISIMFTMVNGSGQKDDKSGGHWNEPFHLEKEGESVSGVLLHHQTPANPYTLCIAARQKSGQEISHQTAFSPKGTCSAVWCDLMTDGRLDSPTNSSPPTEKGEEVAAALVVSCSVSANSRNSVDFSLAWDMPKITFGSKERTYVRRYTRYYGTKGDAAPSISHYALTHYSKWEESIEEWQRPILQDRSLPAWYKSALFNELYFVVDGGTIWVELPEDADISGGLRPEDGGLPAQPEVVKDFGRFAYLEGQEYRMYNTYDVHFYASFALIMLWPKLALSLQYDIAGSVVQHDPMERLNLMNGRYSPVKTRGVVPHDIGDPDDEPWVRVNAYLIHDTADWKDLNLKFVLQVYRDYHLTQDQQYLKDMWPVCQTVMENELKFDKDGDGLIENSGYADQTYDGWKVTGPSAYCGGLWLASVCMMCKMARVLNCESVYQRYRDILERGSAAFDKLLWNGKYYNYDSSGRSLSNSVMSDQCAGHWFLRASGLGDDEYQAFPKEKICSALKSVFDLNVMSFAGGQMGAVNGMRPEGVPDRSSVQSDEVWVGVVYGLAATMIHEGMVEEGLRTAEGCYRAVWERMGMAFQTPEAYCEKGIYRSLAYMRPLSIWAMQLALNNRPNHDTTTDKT

[10] = biological target: T4, GAA (Danio rerio, UniProt A0A8M1QKP5); experiment: In vivo GAA inactivation in zebrafish larvae, ABP labeling; details: 0.1–10 μM, 5 days in vivo
T4 sequence (A0A8M1QKP5 31-918): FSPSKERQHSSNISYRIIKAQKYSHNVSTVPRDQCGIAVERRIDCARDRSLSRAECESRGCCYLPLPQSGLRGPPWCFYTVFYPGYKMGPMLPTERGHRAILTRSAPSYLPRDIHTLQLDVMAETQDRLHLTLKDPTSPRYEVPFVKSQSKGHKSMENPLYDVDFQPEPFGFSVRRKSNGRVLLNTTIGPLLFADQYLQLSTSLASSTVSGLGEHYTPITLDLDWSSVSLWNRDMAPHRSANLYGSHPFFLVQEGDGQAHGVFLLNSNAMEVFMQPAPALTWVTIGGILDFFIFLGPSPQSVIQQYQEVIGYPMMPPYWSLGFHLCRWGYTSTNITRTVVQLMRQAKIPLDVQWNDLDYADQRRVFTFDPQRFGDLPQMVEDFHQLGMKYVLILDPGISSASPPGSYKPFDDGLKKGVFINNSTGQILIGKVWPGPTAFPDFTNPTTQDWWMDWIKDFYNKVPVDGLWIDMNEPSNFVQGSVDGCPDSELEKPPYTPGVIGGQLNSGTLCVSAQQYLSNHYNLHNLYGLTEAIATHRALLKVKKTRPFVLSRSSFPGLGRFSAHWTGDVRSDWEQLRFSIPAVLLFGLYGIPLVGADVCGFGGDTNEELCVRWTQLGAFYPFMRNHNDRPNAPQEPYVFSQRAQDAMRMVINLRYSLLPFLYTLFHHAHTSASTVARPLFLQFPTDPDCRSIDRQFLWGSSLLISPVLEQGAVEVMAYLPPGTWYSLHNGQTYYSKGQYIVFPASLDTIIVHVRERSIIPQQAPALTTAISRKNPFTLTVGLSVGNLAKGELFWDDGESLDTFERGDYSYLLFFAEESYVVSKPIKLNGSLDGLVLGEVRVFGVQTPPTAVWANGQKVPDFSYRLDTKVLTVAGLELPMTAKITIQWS

[11] = test system: glucosylsphingosine (GlcSph); experiment: Glucosylsphingosine levels in treated zebrafish embryos; type: in vivo, Danio rerio; details: 0.1–10 μM inhibitor, zebrafish embryos treated 5 days

Compound: O[C@H]1[C@H](O)[C@@H](O)[C@@H]2O[C@@H]2[C@@H]1O (racemic) [CBE 1, conduritol B epoxide]
Ratio (in vitro) GAA/GBA [1]: 444
IC50 [2]: 4.28 µM

Compound: OC[C@@H]1[C@@H](O)[C@H](O)[C@@H](O)[C@@H]2O[C@H]12 [CP 2, cyclophellitol]
GBA inhibition potency (in words) [3]: high nanomolar to micromolar

ABP labeling of GBA with ABP 8 and ABP 5 in lysates of treated zebrafish [5]: abrogated
IC50 [6]: 1 nM
ABP labeling of GBA2 in lysates of treated zebrafish [9]: not affected
ABP labeling of GAA in lysates of treated zebrafish [10]: not affected
Compound: O[C@@H]1[C@@H](O)[C@@H]2O[C@@H]2[C@H](Cn2cc(CCCOCc3ccc(-c4ccccc4)cc3)nn2)[C@H]1O [Compound 6, Biphenyl-cyclophellitol]
ABP labeling of GUSB in lysates of treated zebrafish [4]: not affected
ABP labeling of LPH in lysates of treated zebrafish [7]: not affected
ABP labeling of GANAB in lysates of treated zebrafish [8]: not affected
Elevation in the level of glucosylsphingosine (GlcSph) [11]: 10–30 fold
